Data as given in ChEMBL document CHEMBL5303304, “EUbOPEN Chemogenomics Library - IncuCyte” (2023).
Several values for one entry are separate records, joined by “and”; a condition that tells them apart may be missing. Equal entries are not always repeated.

What was measured:
Type in all cases: toxicity, cell-based
Fibroblast = assay: Incucyte cell viability with human fibroblast; conditions: 10 µM, compound concentration 10 uM
HEK-293T = assay: Incucyte cell viability with HEK293T; conditions: human, 10 µM, compound concentration 10 uM
U2OS = assay: Incucyte cell viability with U2OS; conditions: human, 10 µM, compound concentration 10 uM
Also: unitless GR value; below 1 slowed growth and below 0 cell loss.

SMILES	Growth Rate (Fibroblast; 6 h, replicate number 2)	Growth Rate (Fibroblast; 12 h, replicate number 2)	Growth Rate (Fibroblast; 18 h, replicate number 2)	Growth Rate (Fibroblast; 24 h, replicate number 2)	Growth Rate (HEK-293T; 6 h, replicate number 1)	Growth Rate (HEK-293T; 12 h, replicate number 1)	Growth Rate (HEK-293T; 12 h, replicate number 2)	Growth Rate (HEK-293T; 18 h, replicate number 1)	Growth Rate (HEK-293T; 18 h, replicate number 2)	Growth Rate (HEK-293T; 24 h, replicate number 1)	Growth Rate (HEK-293T; 24 h, replicate number 2)	Growth Rate (U2OS; 0 h, replicate number 2)	Growth Rate (U2OS; 6 h, replicate number 1)	Growth Rate (U2OS; 6 h, replicate number 2)	Growth Rate (U2OS; 12 h, replicate number 1)	Growth Rate (U2OS; 18 h, replicate number 1)	Growth Rate (U2OS; 24 h, replicate number 1)	Growth Rate (Fibroblast; 6 h, replicate number 1)	Growth Rate (HEK-293T; 6 h, replicate number 2)	Growth Rate (U2OS; 0 h, replicate number 1)	also measured
O=C(Nc1ccccc1Cl)c1cnc2ccc(C3CCNCC3)cn12.O=C(O)C(=O)O	-1	-0.49	0.05	0.33	-0.96	-0.83	-0.61	-0.53	-0.27	-0.28	-0.03	-1	-0.44	0.06	0.46	0.62	0.64				Growth Rate (Fibroblast; 18 h, replicate number 1): -0.51; Growth Rate (Fibroblast; 24 h, replicate number 1): -0.36; Growth Rate (U2OS; 12 h, replicate number 2): 0.5; Growth Rate (U2OS; 18 h, replicate number 2): 0.61; Growth Rate (U2OS; 24 h, replicate number 2): 0.59
COc1ccc(-c2csc(NC(=O)[C@H]3CCCCN3S(=O)(=O)c3ccc(C)cc3)n2)cc1			0.57	0.7			0.37	0.35 and 0.26	0.3 and 0.38	0.37 and 0.33	0.41 and 0.4	-0.9	0.92	0.97	0.99		0.87 and 0.98	0.02	0.07 and 0.12	0.22	Growth Rate (Fibroblast; 0 h, replicate number 1): -1 and -0.88; Growth Rate (Fibroblast; 12 h, replicate number 1): 0.31; Growth Rate (Fibroblast; 24 h, replicate number 1): 0.84
O=C(NNC(=O)c1ccc(CNS(=O)(=O)c2ccc(F)c(Cl)c2)cc1)c1ccccc1	-0.76		0.85		0.34	0.48	0.64	0.31	0.87	0.36	0.83	0.85				0.97			0.59	0.67	Growth Rate (Fibroblast; 0 h, replicate number 1): -0.42; Growth Rate (Fibroblast; 0 h, replicate number 2): -1; Growth Rate (Fibroblast; 18 h, replicate number 1): 0.64
CC(C)n1cnc2c(Nc3cccc(Cl)c3)nc(N[C@H]3CCCC[C@@H]3N)nc21	-0.94	-0.16	-0.01	0.13	-0.96	-0.82	-0.59	-0.56	-0.35	-0.46	-0.25		0.85	0.88	-0.26	-0.12	-0.14	-1	-0.92	-1	Growth Rate (U2OS; 12 h, replicate number 2): -0.22; Growth Rate (U2OS; 18 h, replicate number 2): -0.25; Growth Rate (U2OS; 24 h, replicate number 2): -0.2
CCOC(=O)c1cnn(-c2ccc(NC(=O)C(Cl)=C(Cl)Cl)cc2)c1C(F)(F)F	-1	-0.86	-0.7	-0.57	-0.63	-0.5	-0.37	-0.51	-0.25	-0.51	-0.13	0.55	-0.33	0.04	-0.42	-0.49	-0.43		-0.52	-0.17	Growth Rate (Fibroblast; 12 h, replicate number 1): -1; Growth Rate (U2OS; 12 h, replicate number 2): -0.46; Growth Rate (U2OS; 18 h, replicate number 2): -0.43; Growth Rate (U2OS; 24 h, replicate number 2): -0.42
CC(C)(C)c1ccc(NC(=O)N2CCN(c3ncccc3Cl)CC2)cc1				0.87	-0.72	-0.41	0.06	-0.12	0.09	-0.21	0.17				0.89	0.88	0.99	0.2	-0.47		Growth Rate (Fibroblast; 0 h, replicate number 2): -0.81; Growth Rate (Fibroblast; 18 h, replicate number 1): 0.84
Cl.Cl.NC1(c2ccc(-c3nc4ccn5c(=O)[nH]nc5c4cc3-c3ccccc3)cc2)CCC1	-1	-0.83	-0.54	-0.32	-0.64	-0.64	-0.42	-0.54	-0.27	-0.48	-0.24						1	-0.87	-0.68		Growth Rate (Fibroblast; 12 h, replicate number 1): -1
